Tests used:
Format in all cases: in vivo
[1] = test system: sedge, umbrella (small-flower umbrella sedge Cyperus difformis); experiment: Test B flooded paddy: sedge, umbrella; details: Flood; 250 g ai/ha; applied to paddy water at 2-leaf stage; visually evaluated after 13 to 15 days
In short: (§1)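 Paddy-water application: seedlings at 2-leaf stage, flood depth 3 cm maintained for the test duration. Evaluation after 13–15 days in the greenhouse by eye relative to controls; 0–100 scale.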

[2] = test system: barnyardgrass (Echinochloa crus-galli); experiment: Test B flooded paddy: barnyardgrass; details: Flood; 250 g ai/ha; applied to paddy water at 2-leaf stage; visually evaluated after 13 to 15 days
In short: as §1

corn (Zea mays) = experiment: Test C pre-/postemergence: corn
In short: (§2)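 Preemergence on seeds in loam/sand, postemergence on 2–18 cm (1–4-leaf) plants in peat-based medium; compounds in non-phytotoxic solvent with surfactant. After 13–15 days in greenhouse, visual rating versus controls, 0 (no effect) to 100 (complete control).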

[3] = test system: ryegrass, Italian (Italian ryegrass, Lolium multiflorum); experiment: Test C pre-/postemergence: ryegrass, Italian
In short: as §2

[4] = test system: blackgrass (Alopecurus myosuroides); experiment: Test C pre-/postemergence: blackgrass
In short: as §2

[5] = test system: morningglory (Ipomoea coccinea); experiment: Test C pre-/postemergence: morningglory
In short: as §2

[6] = test system: chickweed (common chickweed, Stellaria media); experiment: Test C postemergence: chickweed
In short: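 Greenhouse pot test; foliar postemergence treatment at 1- to 4-leaf stage. Rated visually at 13 to 15 days on a 0–100 control scale relative to untreated plants.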

[7] = test system: large crabgrass (Digitaria sanguinalis); experiment: Test C pre-/postemergence: large crabgrass
In short: as §2

[8] = test system: ducksalad (Heteranthera limosa); experiment: Test B flooded paddy: ducksalad; details: Flood; 250 g ai/ha; applied to paddy water at 2-leaf stage; visually evaluated after 13 to 15 days
In short: as §1

[9] = test system: winter wheat (Triticum aestivum); experiment: Test C pre-/postemergence: winter wheat
In short: as §2

[10] = test system: velvetleaf (Abutilon theophrasti); experiment: Test A pre-/postemergence: velvetleaf; details: for Velvetleaf plant response rating: visual rating on 0 to 100 scale (0 no effect, 100 complete control), approximately ten days
In short: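 Soil medium was loam blended with sand; treatments pre- and postemergence were applied concurrently, postemergence at one- to two-leaf stage. Approximately ten days in greenhouse preceded visual comparison with untreated controls, scored 0 (no effect) to 100 (complete control).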

[11] = Postemergence, 31 g ai/ha, scale 0 to 100 (0 no effect, 100 complete control)
[12] = Postemergence, 62 g ai/ha, scale 0 to 100 (0 no effect, 100 complete control)
[13] = Postemergence, 250 g ai/ha, scale 0 to 100
[14] = Preemergence, 31 g ai/ha, scale of 0 to 100, 0 is no effect, 100 is complete control
[15] = Preemergence, 62 g ai/ha, scale of 0 to 100, 0 is no effect, 100 is complete control
[16] = Preemergence, 125 g ai/ha, scale 0 to 100, 0 no effect, 100 complete control
[17] = Preemergence, 250 g ai/ha, scale 0 to 100, 0 no effect, 100 complete control
[18] = Postemergence, 125 g ai/ha, scale 0 to 100, 0 no effect, 100 complete control
[19] = 31 g ai/ha, scale 0 to 100 (0 no effect, 100 complete control)
[20] = 62 g ai/ha, scale 0 to 100 (0 no effect, 100 complete control)
[21] = 125 g ai/ha, scale 0 to 100, 0 no effect, 100 complete control
[22] = Postemergence, 125 g ai/ha, 0 to 100 scale, 0 is no effect, 100 is complete control
[23] = Preemergence, 125 g ai/ha, 0 to 100 scale where 0 is no effect and 100 is complete control

CCc1nn(-c2ccc(F)cc2)nc1Cc1ccnc(C(F)(F)F)c1 [Compound 154]
Plant response rating, Sedge, Umbrella (0 to 100 scale, 0 is no effect, 100 is complete control) [1]: 80
Plant response rating, Barnyardgrass (0 to 100 scale, 0 is no effect, 100 is complete control) [2]: 60
Plant response rating, Corn (corn (Zea mays); [11]): 20
Plant response rating, Corn (corn (Zea mays); [12]): 20
Plant response rating, Corn (corn (Zea mays); [13]): 20
Plant response rating, Corn (corn (Zea mays); [14]): 0
Plant response rating, Corn (corn (Zea mays); [15]): 5
Plant response rating, Corn (corn (Zea mays); [16]): 10
Plant response rating, Corn (corn (Zea mays); [17]): 15
Plant response rating, Ryegrass, Italian [3, 11]: 5
Plant response rating, Ryegrass, Italian [3, 12]: 10
Plant response rating, Ryegrass, Italian [3, 18]: 30
Plant response rating, Ryegrass, Italian [3, 13]: 35
Plant response rating, Ryegrass, Italian [3, 14]: 10
Plant response rating, Ryegrass, Italian [3, 15]: 30
Plant response rating, Ryegrass, Italian [3, 16]: 90
Plant response rating, Ryegrass, Italian [3, 17]: 90
Plant response rating, Blackgrass [4, 11]: 15
Plant response rating, Blackgrass [4, 12]: 35
Plant response rating, Blackgrass [4, 18]: 55
Plant response rating, Blackgrass [4, 13]: 70
Plant response rating, Blackgrass [4, 14]: 90
Plant response rating, Blackgrass [4, 15]: 90
Plant response rating, Blackgrass [4, 16]: 90
Plant response rating, Blackgrass [4, 17]: 90
Plant response rating, Morningglory [5, 11]: 40
Plant response rating, Morningglory [5, 12]: 75
Plant response rating, Morningglory [5, 18]: 75
Plant response rating, Morningglory [5, 13]: 98
Plant response rating, Morningglory [5, 14]: 0
Plant response rating, Morningglory [5, 15]: 5
Plant response rating, Morningglory [5, 16]: 5
Plant response rating, Morningglory [5, 17]: 25
Plant response rating, Chickweed [6, 19]: 85
Plant response rating, Chickweed [6, 20]: 85
Plant response rating, Chickweed [6, 21]: 95
Plant response rating, Chickweed ([6]; 250 g ai/ha, scale 0 to 100): 95
Plant response rating, Crabgrass, Large [7, 11]: 20
Plant response rating, Crabgrass, Large [7, 12]: 30
Plant response rating, Crabgrass, Large [7, 18]: 45
Plant response rating, Crabgrass, Large [7, 13]: 70
Plant response rating, Crabgrass, Large [7, 14]: 90
Plant response rating, Crabgrass, Large [7, 15]: 100
Plant response rating, Crabgrass, Large [7, 16]: 100
Plant response rating, Crabgrass, Large [7, 17]: 100
Plant response rating, Ducksalad (0 to 100 scale, 0 is no effect, 100 is complete control) [8]: 80
Plant response rating, Wheat [9, 11]: 10
Plant response rating, Wheat [9, 12]: 15
Plant response rating, Wheat [9, 18]: 20
Plant response rating, Wheat [9, 13]: 30
Plant response rating, Wheat [9, 15]: 5
Plant response rating, Wheat [9, 16]: 5
Plant response rating, Wheat [9, 17]: 55
Plant response rating, Velvetleaf [10, 22]: 100
Velvetleaf plant response rating ([10]; Postemergence, 500 g ai/ha): 100
Plant response rating, Velvetleaf [10, 23]: 30
Plant response rating, Velvetleaf ([10]; Preemergence, 500 g ai/ha, 0 to 100 scale (0 no effect, 100 complete control)): 70

CCc1nn(-c2ccc(C(F)(F)F)cc2)nc1Cc1ccnc(C(F)(F)F)c1 [Compound 155]
Plant response rating, Sedge, Umbrella (0 to 100 scale, 0 is no effect, 100 is complete control) [1]: 80
Plant response rating, Barnyardgrass (0 to 100 scale, 0 is no effect, 100 is complete control) [2]: 75
Plant response rating, Corn (corn (Zea mays); [11]): 25
Plant response rating, Corn (corn (Zea mays); [12]): 25
Plant response rating, Corn (corn (Zea mays); [18]): 45
Plant response rating, Corn (corn (Zea mays); [13]): 45
Plant response rating, Corn (corn (Zea mays); [14]): 5
Plant response rating, Corn (corn (Zea mays); [15]): 5
Plant response rating, Corn (corn (Zea mays); [16]): 10
Plant response rating, Corn (corn (Zea mays); [17]): 45
Plant response rating, Ryegrass, Italian [3, 11]: 35
Plant response rating, Ryegrass, Italian [3, 12]: 45
Plant response rating, Ryegrass, Italian [3, 18]: 65
Plant response rating, Ryegrass, Italian [3, 13]: 70
Plant response rating, Ryegrass, Italian [3, 14]: 35
Plant response rating, Ryegrass, Italian [3, 15]: 85
Plant response rating, Ryegrass, Italian [3, 16]: 85
Plant response rating, Ryegrass, Italian [3, 17]: 90
Plant response rating, Blackgrass [4, 11]: 40
Plant response rating, Blackgrass [4, 12]: 70
Plant response rating, Blackgrass [4, 18]: 85
Plant response rating, Blackgrass [4, 13]: 90
Plant response rating, Blackgrass [4, 14]: 90
Plant response rating, Blackgrass [4, 15]: 90
Plant response rating, Blackgrass [4, 16]: 90
Plant response rating, Blackgrass [4, 17]: 90
Plant response rating, Morningglory [5, 11]: 55
Plant response rating, Morningglory [5, 12]: 65
Plant response rating, Morningglory [5, 18]: 65
Plant response rating, Morningglory [5, 13]: 98
Plant response rating, Morningglory [5, 14]: 10
Plant response rating, Morningglory [5, 15]: 40
Plant response rating, Morningglory [5, 16]: 60
Plant response rating, Morningglory [5, 17]: 90
Plant response rating, Chickweed [6, 19]: 50
Plant response rating, Chickweed [6, 20]: 70
Plant response rating, Chickweed [6, 21]: 95
Plant response rating, Chickweed ([6]; 250 g ai/ha, scale 0 to 100): 100
Plant response rating, Crabgrass, Large [7, 11]: 20
Plant response rating, Crabgrass, Large [7, 12]: 45
Plant response rating, Crabgrass, Large [7, 18]: 75
Plant response rating, Crabgrass, Large [7, 13]: 85
Plant response rating, Crabgrass, Large [7, 14]: 100
Plant response rating, Crabgrass, Large [7, 15]: 100
Plant response rating, Crabgrass, Large [7, 16]: 100
Plant response rating, Crabgrass, Large [7, 17]: 100
Plant response rating, Ducksalad (0 to 100 scale, 0 is no effect, 100 is complete control) [8]: 80
Plant response rating, Wheat [9, 11]: 15
Plant response rating, Wheat [9, 12]: 30
Plant response rating, Wheat [9, 18]: 35
Plant response rating, Wheat [9, 13]: 40
Plant response rating, Wheat [9, 15]: 5
Plant response rating, Wheat [9, 16]: 10
Plant response rating, Wheat [9, 17]: 35
Plant response rating, Velvetleaf [10, 22]: 100
Velvetleaf plant response rating ([10]; Postemergence, 500 g ai/ha): 100

Cc1nn(-c2ccc(F)c(C(F)(F)F)c2)nc1Cc1ccnc(C(F)(F)F)c1 [Compound 156]
Plant response rating, Sedge, Umbrella (0 to 100 scale, 0 is no effect, 100 is complete control) [1]: 85
Plant response rating, Barnyardgrass (0 to 100 scale, 0 is no effect, 100 is complete control) [2]: 75
Plant response rating, Corn (corn (Zea mays); [12]): 15
Plant response rating, Corn (corn (Zea mays); [18]): 25
Plant response rating, Corn (corn (Zea mays); [13]): 30
Plant response rating, Corn (corn (Zea mays); [14]): 5
Plant response rating, Corn (corn (Zea mays); [15]): 5
Plant response rating, Corn (corn (Zea mays); [16]): 10
Plant response rating, Corn (corn (Zea mays); [17]): 30
Plant response rating, Ryegrass, Italian [3, 11]: 15
Plant response rating, Ryegrass, Italian [3, 12]: 35
Plant response rating, Ryegrass, Italian [3, 18]: 35
Plant response rating, Ryegrass, Italian [3, 13]: 70
Plant response rating, Ryegrass, Italian [3, 14]: 45
Plant response rating, Ryegrass, Italian [3, 15]: 80
Plant response rating, Ryegrass, Italian [3, 16]: 90
Plant response rating, Ryegrass, Italian [3, 17]: 90
Plant response rating, Blackgrass [4, 11]: 50
Plant response rating, Blackgrass [4, 12]: 60
Plant response rating, Blackgrass [4, 18]: 75
Plant response rating, Blackgrass [4, 13]: 85
Plant response rating, Blackgrass [4, 14]: 85
Plant response rating, Blackgrass [4, 15]: 90
Plant response rating, Blackgrass [4, 16]: 90
Plant response rating, Blackgrass [4, 17]: 90
Plant response rating, Morningglory [5, 11]: 65
Plant response rating, Morningglory [5, 12]: 70
Plant response rating, Morningglory [5, 18]: 75
Plant response rating, Morningglory [5, 13]: 100
Plant response rating, Morningglory [5, 14]: 5
Plant response rating, Morningglory [5, 15]: 10
Plant response rating, Morningglory [5, 16]: 10
Plant response rating, Morningglory [5, 17]: 30
Plant response rating, Chickweed [6, 19]: 95
Plant response rating, Chickweed [6, 20]: 95
Plant response rating, Chickweed [6, 21]: 95
Plant response rating, Chickweed ([6]; 250 g ai/ha, scale 0 to 100): 98
Plant response rating, Crabgrass, Large [7, 11]: 10
Plant response rating, Crabgrass, Large [7, 12]: 30
Plant response rating, Crabgrass, Large [7, 18]: 40
Plant response rating, Crabgrass, Large [7, 13]: 70
Plant response rating, Crabgrass, Large [7, 14]: 90
Plant response rating, Crabgrass, Large [7, 15]: 90
Plant response rating, Crabgrass, Large [7, 16]: 98
Plant response rating, Crabgrass, Large [7, 17]: 100
Plant response rating, Ducksalad (0 to 100 scale, 0 is no effect, 100 is complete control) [8]: 90
Plant response rating, Wheat [9, 11]: 5
Plant response rating, Wheat [9, 12]: 15
Plant response rating, Wheat [9, 18]: 25
Plant response rating, Wheat [9, 13]: 30
Plant response rating, Wheat [9, 15]: 5
Plant response rating, Wheat [9, 16]: 20
Plant response rating, Wheat [9, 17]: 35
Plant response rating, Velvetleaf [10, 22]: 100
Velvetleaf plant response rating ([10]; Postemergence, 500 g ai/ha): 100
Plant response rating, Velvetleaf [10, 23]: 30

Source: patent US9302999B2, “Substituted triazoles as herbicides” (E. I. DU PONT DE NEMOURS AND COMPANY, priority 2012, dated 2016)
